Legend:
[1] = test system: IL-13 induced pSTAT6 in lung tissue; test: Murine model of IL-13 induced pSTAT6 induction in lung tissue; assay type: in vivo, mouse; conditions: balb/c mice, test compound 0.5 mg/mL, 50 μL by oral aspiration, IL-13 challenge eight hours later, lungs collected one hour after
Method: IL-13 binds to cell surface receptors activating members of the Janus family of kinases (JAK) which then phosphorylate STAT6 and subsequently activate further transcription pathways. In the described model, a dose of IL-13 was delivered locally into the lungs of mice to induce the phosphorylation of STAT6 (pSTAT6) which is then measured as the endpoint.
Adult balb/c mice from Harlan were used in the assay. On the day of study, animals were lightly anesthetized with isoflurane and administered either vehicle or test compound (0.5 mg/mL, […] total volume over several breaths) via oral aspiration.
Animals were placed in lateral recumbency post dose and monitored for full recovery from anesthesia before being returned to their home cage. Eight hours later, animals were once again briefly anesthetized and challenged with either vehicle or IL-13 (0.03 μg total dose delivered, 50 μL total volume) via oral aspiration before being monitored for recovery from anesthesia and returned to their home cage. One hour after vehicle or IL-13 administration, lungs were collected for both pSTAT6 detection using an AlphaLISA Immunoassay (PerkinElmer) and analyzed for total drug concentration.
Selected compounds of the present disclosure were tested in the assay. Activity in the model is evidenced by a decrease in the level of pSTAT6 present in the lungs of treated animals at 9 hours compared to the vehicle treated, IL-13 challenged control animals. The difference between the control animals which were vehicle-treated, IL-13 challenged and the control animals which were vehicle-treated, vehicle challenged dictated the 0% and 100% inhibitory effect, respectively, in any given experiment.

JAK3 = JAK3 (Homo sapiens (Human), UniProt P52333); test: Biochemical JAK kinase assay (LanthaScreen), JAK3; conditions: read-out: JAK3 pKi (converted)
How it was run: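 LanthaScreen format: phospho-STAT1 (pTyr701) detected with 2 nM Tb antibody after 10 mM EDTA quench. Kinase step used Km-level ATP and 200 nM STAT1 peptide, 1 h at ambient after 1 h pre-incubation. Inhibition fitted to IC50, reported as pKi.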

Sequence of JAK3 (P52333 whole entry): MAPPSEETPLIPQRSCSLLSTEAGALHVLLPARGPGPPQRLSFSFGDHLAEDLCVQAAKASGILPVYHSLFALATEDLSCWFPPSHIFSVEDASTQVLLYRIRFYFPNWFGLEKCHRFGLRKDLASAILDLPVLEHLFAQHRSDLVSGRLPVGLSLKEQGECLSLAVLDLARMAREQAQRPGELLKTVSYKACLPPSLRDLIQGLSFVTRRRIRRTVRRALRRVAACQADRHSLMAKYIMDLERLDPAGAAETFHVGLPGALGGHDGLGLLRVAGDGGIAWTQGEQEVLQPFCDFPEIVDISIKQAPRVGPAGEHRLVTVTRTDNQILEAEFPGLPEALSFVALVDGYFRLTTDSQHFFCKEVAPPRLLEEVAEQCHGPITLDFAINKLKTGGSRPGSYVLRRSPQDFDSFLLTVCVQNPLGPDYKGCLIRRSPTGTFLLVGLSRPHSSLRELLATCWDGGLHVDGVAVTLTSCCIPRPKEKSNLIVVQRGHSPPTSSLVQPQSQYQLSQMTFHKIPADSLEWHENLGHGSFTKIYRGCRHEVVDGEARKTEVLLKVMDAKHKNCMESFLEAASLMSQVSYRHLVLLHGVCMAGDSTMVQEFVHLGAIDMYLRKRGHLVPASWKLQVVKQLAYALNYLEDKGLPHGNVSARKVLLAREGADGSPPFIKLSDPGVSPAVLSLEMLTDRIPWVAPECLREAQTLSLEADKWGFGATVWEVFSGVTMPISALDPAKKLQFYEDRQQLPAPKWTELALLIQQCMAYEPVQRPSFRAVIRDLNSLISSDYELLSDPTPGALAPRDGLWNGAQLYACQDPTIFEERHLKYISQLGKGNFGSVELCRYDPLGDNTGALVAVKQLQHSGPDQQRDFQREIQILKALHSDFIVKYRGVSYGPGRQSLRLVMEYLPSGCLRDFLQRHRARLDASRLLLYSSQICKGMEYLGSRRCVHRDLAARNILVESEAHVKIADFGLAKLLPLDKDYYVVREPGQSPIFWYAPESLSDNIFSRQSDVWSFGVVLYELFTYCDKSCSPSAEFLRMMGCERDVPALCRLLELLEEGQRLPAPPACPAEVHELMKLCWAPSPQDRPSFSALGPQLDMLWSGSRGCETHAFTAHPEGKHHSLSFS

Row | Compound | % pSTAT6 inhibition at 8 hours [1] | Ki (JAK3)
1 | CCc1cc(O)ccc1-c1ccc2c(-c3nc(C4=CCNC4)c[nH]3)n[nH]c2c1F [Compound 1, 4-(3-(4-(2,5-dihydro-1H-pyrrol-3-yl)-1H-imidazol-2-yl)-7-fluoro-1H-indazol-6-yl)-3-ethylphenol] | A (A represents between 80% and 100% inhibition) | 0.1 to 1 nM
2 | CCc1cc(O)ccc1-c1ccc2c(-c3nc(C4=CCNCC4)c[nH]3)n[nH]c2c1 [Compound 3, 3-ethyl-4-(3-(4-(1,2,3,6-tetrahydropyridin-4-yl)-1H-imidazol-2-yl)-1H-indazol-6-yl)phenol] | A (A represents between 80% and 100% inhibition) | 1 to 10 nM
3 | CCc1cc(O)ccc1-c1ccc2c(-c3nc(C4=CCNCC4)c[nH]3)n[nH]c2c1F [Compound 2, 3-ethyl-4-(7-fluoro-3-(4-(1,2,3,6-tetrahydropyridin-4-yl)-1H-imidazol-2-yl)-1H-indazol-6-yl)phenol] | A (A represents between 80% and 100% inhibition) | 1 to 10 nM

From patent publication US20240092758A1, “IMIDAZOLO INDAZOLE COMPOUNDS AS JAK INHIBITORS” (Theravance Biopharma R&D IP, LLC, priority 2021, published 2024)
